In US20090030066A1, “SMALL MOLECULES FOR THE PROTECTION OF PANCREATIC CELLS” (priority 2007, published 2009):

Legend:
[1] = system: human bone marrow-derived mesenchymal stem cells (MSC); experiment: Expansion (cell count) of human bone marrow-derived mesenchymal stem cells; assay type: cell-based; conditions: for Cell number per culture: Table 4 experiment; for Cell number/culture: Table 5 experiment
Excerpt: Bone marrow aspirates were taken from normal adult donors signed after informed consent according to a protocol approved by the appropriate Ethics Committee. For the preparation of bone marrow mesenchymal stem cells, essentially a widely used technique was used as described earlier by others [Pittenger, M. F., Mackay, A. M., Beck, S. C., Jaiswal, R. K., Douglas, R., Mosca, J. D., Moorman, M. A., Simonetti, D. W., Craig, S, and Marshak, D. R., Multilineage potential of adult human mesenchymal stem cells (1999) Science 284, 143-147]. Briefly, nucleated cells were isolated with a pre-prepared commercial density gradient (Lymphoprep, Nycomed, Pharma, Oslo, Norway) and resuspended in Dulbecco's modified Eagle's medium (DMEM) (GIBCO, Grand Island, N.Y.) supplemented with 10% fetal calf serum (FCS), 50 U/ml of penicillin, and 50 μg/ml of streptomycin (GIBCO). All nucleated cells were plated in 25-cm^2 flasks (BD Falcon, Bedford, Mass.) at 37° C. in humidified atmosphere containing 5% CO2. After 24 hours, nonadherent cells were removed and cryopreserved in liquid nitrogen until use. The remaining adherent cells were thoroughly washed with Hanks balanced salt solution (HBSS) (GIBCO). Fresh complete culture medium was added and replaced every 3 or 4 days (twice a week). When cells grew to about 80% confluence, they were suspended and harvested by incubating with a ready-made solution containing 0.25% trypsin and 1 mM EDTA (Sigma-Aldrich, St. Louis, Mo.) for 5 minutes at 37° C.; this cell suspension is designated as passage 1. These cells were further expanded with 1:3-1:5 splitting in 175-cm^2 flasks (BD Falcon).
The total numbers of nucleated and viable cells were determined with a hemocytometer, using Turck's solution and trypan blue stain, respectively. The morphology of MSC was examined every week under an inverted microscope (Olympos CK2, Tokyo, Japan) to verify that cells retained their structural characteristics. In the two experiments described below, MSCs were split into 24-well “F-bottom” plates at passage 5.
In both experiments, about 80% confluent cells were split into 24-well “F-bottom” plates. Then after 24 hours in 10% serum containing medium (at about 30-35% confluence), the medium was replaced for either serum-free medium or 2% or 10 fetal calf serum containing medium. […] In both experiments, the data are the mean ±S.D. of 5 incubations.

STZ-treated mice = experiment: Blood glucose and body weight in STZ-treated mice, first experiment (not fasted); assay type: in vivo; conditions: for Body weight: in g
Procedure: Male C57BL/6 mice (12 weeks old) were housed in a specific pathogen-free facility with a 12-h light/dark cycle and given free access to food and water. Animals weighing between 28-31 g were selected for the experiments. In each group, at the start of experiment the body weight among individual animals differed by less than 1-g.
One group of mice received no treatment over the entire experiment. A second group received only 4.5 mg per kg of CCompound1 on days −2, −1, 0, +1, +2, +3, +4, +5, +6 and +7. A third/fourth/fifth/sixth group of animals were treated i.p. with 210 mg/kg of STZ on day 0. The fourth, fifth, and sixth group of animals also received 4.5 mg per kg each of CCompound1 (CC1; 4th group) or CCompound3 (CC3; 5th group), or CCompound19 (CC19; 6th group) on days −2, −1, 0, +1, +2, +3, +4, +5, +6 and +7 (with STZ treatment given on day 0). Each group consisted of 7 animals. Body weight was measured regularly.
CC compounds were dissolved in physiological saline while STZ was dissolved in 100 mM sodium citrate (pH 4.5). All compounds were injected intraperitoneally in 0.5 ml volume. Control animals were injected physiological saline (0.5 ml) on the same days when other groups were treated with CC compounds.
Blood samples were taken from the eye (canthus) of the animals on days −1, 0, +1, +2, +3, +7 and +10, and glucose concentrations in whole blood samples were immediately measured with the commercially available fast Glucose C test. The animals were not fasted prior to taking the blood samples. The results are expressed as the mean values from 7 animals ±std. dev. (S.D.).

Structure (SMILES): Cc1c(OCC(O)C[N+](C)(C)C)cc2c(=O)c3ccccc3sc2c1C.[Cl-] (stereo not shown) [CCcompound1, [3-(3,4-Dimethyl-9-oxo-9H-thioxanthen-2-yloxy)-2-hydroxypropyl]trimethyl-ammonium chloride]
- effect on MSC proliferation ([1]; 10 μM, 10% serum): enhanced cell proliferation
- effect on expansion of stem cells ([1]; 5-10 μM, absence and presence of 2% serum, between days 3 and 6): significantly increased the expansion of stem cells
- effect on MSC cell numbers ([1]; 5-10 μM, absence or presence of 2% serum, first 3 days): slightly enhance cell numbers
- Cell number per culture ([1]; 0% serum, day 2, 5 μM): 6.4 ± 2.0 ×10^−3
- Cell number per culture ([1]; 0% serum, day 2, 10 μM): 5.9 ± 1.9 ×10^−3
- Cell number per culture ([1]; 0% serum, day 2, 50 μM): 4.0 ± 1.6 ×10^−3
- Cell number per culture ([1]; 0% serum, day 4, 5 μM): 8.1 ± 2.1 ×10^−3
- Cell number per culture ([1]; 0% serum, day 4, 10 μM): 6.8 ± 2.4 ×10^−3
- Cell number per culture ([1]; 0% serum, day 4, 50 μM): 3.4 ± 1.1 ×10^−3
- Cell number per culture ([1]; 0% serum, day 6, 5 μM): 12.5 ± 1.6 ×10^−3
- Cell number per culture ([1]; 0% serum, day 6, 10 μM): 10.2 ± 1.4 ×10^−3
- Cell number per culture ([1]; 0% serum, day 6, 50 μM): 3.8 ± 1.2 ×10^−3
- Cell number per culture ([1]; 2% serum, day 2, 5 μM): 7.1 ± 2.7 ×10^−3
- Cell number per culture ([1]; 2% serum, day 2, 10 μM): 6.3 ± 1.6 ×10^−3
- Cell number per culture ([1]; 2% serum, day 2, 50 μM): 3.9 ± 1.1 ×10^−3
- Cell number per culture ([1]; 2% serum, day 4, 5 μM): 11.6 ± 2.4 ×10^−3
- Cell number per culture ([1]; 2% serum, day 4, 10 μM): 9.2 ± 2.3 ×10^−3
- Cell number per culture ([1]; 2% serum, day 4, 50 μM): 5.2 ± 1.6 ×10^−3
- Cell number per culture ([1]; 2% serum, day 6, 5 μM): 20.8 ± 2.5 ×10^−3
- Cell number per culture ([1]; 2% serum, day 6, 10 μM): 17.4 ± 2.0 ×10^−3
- Cell number per culture ([1]; 2% serum, day 6, 50 μM): 7.0 ± 3.3 ×10^−3
- Cell number/culture ([1]; 2.0 μM, 0% serum, Day 3): 4.7 ± 3.5 ×10^−3
- Cell number/culture ([1]; 2.0 μM, 0% serum, Day 6): 6.2 ± 1.7 ×10^−3
- Cell number/culture ([1]; 2.0 μM, 2% serum, Day 3): 4.9 ± 2.6 ×10^−3
- Cell number/culture ([1]; 2.0 μM, 2% serum, Day 6): 16.4 ± 2.5 ×10^−3
- Cell number/culture ([1]; 2.0 μM, 10% serum, Day 3): 5.9 ± 1.7 ×10^−3
- Cell number/culture ([1]; 2.0 μM, 10% serum, Day 6): 33.3 ± 5.2 ×10^−3
- Cell number/culture ([1]; 5.0 μM, 0% serum, Day 3): 5.9 ± 2.1 ×10^−3
- Cell number/culture ([1]; 5.0 μM, 0% serum, Day 6): 10.3 ± 2.5 ×10^−3
- Cell number/culture ([1]; 5.0 μM, 2% serum, Day 3): 7.2 ± 1.3 ×10^−3
- Cell number/culture ([1]; 5.0 μM, 2% serum, Day 6): 18.3 ± 4.8 ×10^−3
- Cell number/culture ([1]; 5.0 μM, 10% serum, Day 3): 6.2 ± 2.6 ×10^−3
- Cell number/culture ([1]; 5.0 μM, 10% serum, Day 6): 36.4 ± 5.2 ×10^−3
- Cell number/culture ([1]; 10.0 μM, 0% serum, Day 3): 6.3 ± 2.2 ×10^−3
- Cell number/culture ([1]; 10.0 μM, 0% serum, Day 6): 13.3 ± 3.2 ×10^−3
- Cell number/culture ([1]; 10.0 μM, 2% serum, Day 3): 5.6 ± 1.6 ×10^−3
- Cell number/culture ([1]; 10.0 μM, 2% serum, Day 6): 19.0 ± 3.8 ×10^−3
- Cell number/culture ([1]; 10.0 μM, 10% serum, Day 3): 5.1 ± 1.7 ×10^−3
- Cell number/culture ([1]; 10.0 μM, 10% serum, Day 6): 39.1 ± 4.1 ×10^−3
- Cell number/culture ([1]; 25.0 μM, 0% serum, Day 3): 4.4 ± 1.7 ×10^−3
- Cell number/culture ([1]; 25.0 μM, 0% serum, Day 6): 6.4 ± 3.1 ×10^−3
- Cell number/culture ([1]; 25.0 μM, 2% serum, Day 3): 4.7 ± 2.6 ×10^−3
- Cell number/culture ([1]; 25.0 μM, 2% serum, Day 6): 12.9 ± 4.9 ×10^−3
- Cell number/culture ([1]; 25.0 μM, 10% serum, Day 3): 5.2 ± 2.1 ×10^−3
- Cell number/culture ([1]; 25.0 μM, 10% serum, Day 6): 33.5 ± 5.3 ×10^−3
- Cell number/culture ([1]; 100.0 μM, 0% serum, Day 3): 1.1 ± 1.6 ×10^−3
- Cell number/culture ([1]; 100.0 μM, 0% serum, Day 6): 1.3 ± 1.1 ×10^−3
- Cell number/culture ([1]; 100.0 μM, 2% serum, Day 3): 1.5 ± 1.1 ×10^−3
- Cell number/culture ([1]; 100.0 μM, 2% serum, Day 6): 5.8 ± 3.2 ×10^−3
- Cell number/culture ([1]; 100.0 μM, 10% serum, Day 3): 4.4 ± 2.5 ×10^−3
- Cell number/culture ([1]; 100.0 μM, 10% serum, Day 6): 14.8 ± 3.1 ×10^−3
- decrease of the effects on cell survival and proliferation when added late ([1]; compound added 6 hours after medium change, data not shown): 50-70%
- effect of compound alone on blood glucose level (STZ-treated mice; 4.5 mg/kg i.p., no STZ): no effect on blood glucose level
- Body weight (STZ-treated mice; STZ 210 mg/kg + compound 4.5 mg/kg i.p., day 0, unit not given): 28.2 ± 0.7
- Body weight (STZ-treated mice; STZ 210 mg/kg + compound 4.5 mg/kg i.p., day +1, unit not given): 28.0 ± 0.7
- Body weight (STZ-treated mice; STZ 210 mg/kg + compound 4.5 mg/kg i.p., day +2, unit not given): 26.9 ± 0.8
- Body weight (STZ-treated mice; STZ 210 mg/kg + compound 4.5 mg/kg i.p., day +3, unit not given): 26.9 ± 0.5
- Body weight (STZ-treated mice; STZ 210 mg/kg + compound 4.5 mg/kg i.p., day +7, unit not given): 27.1 ± 0.7
- Body weight (STZ-treated mice; STZ 210 mg/kg + compound 4.5 mg/kg i.p., day +10, unit not given): 27.2 ± 0.9
- Blood glucose (STZ-treated mice; STZ 210 mg/kg i.p. day 0 + compound 4.5 mg/kg i.p. days −2 to +7, day 0): 4.1 ± 0.4 mM
- Blood glucose (STZ-treated mice; STZ 210 mg/kg i.p. day 0 + compound 4.5 mg/kg i.p. days −2 to +7, day +1): 5.7 ± 0.5 mM
- Blood glucose (STZ-treated mice; STZ 210 mg/kg i.p. day 0 + compound 4.5 mg/kg i.p. days −2 to +7, day +2): 8.2 ± 1.4 mM
- Blood glucose (STZ-treated mice; STZ 210 mg/kg i.p. day 0 + compound 4.5 mg/kg i.p. days −2 to +7, day +3): 10.1 ± 1.5 mM
- Blood glucose (STZ-treated mice; STZ 210 mg/kg i.p. day 0 + compound 4.5 mg/kg i.p. days −2 to +7, day +7): 10.9 ± 1.2 mM
- Blood glucose (STZ-treated mice; STZ 210 mg/kg i.p. day 0 + compound 4.5 mg/kg i.p. days −2 to +7, day +10): 11.0 ± 0.8 mM
- Blood glucose (STZ-treated mice; STZ 210 mg/kg i.p. day 0 + compound 4.5 mg/kg i.p. days −2 to +7, day −1): 4.6 ± 0.7 mM
- protection of islet β-cells (STZ-treated mice; STZ-induced type 1 diabetes model): protected islet β-cells
- effect on STZ-induced rise of blood glucose (STZ-treated mice; STZ-treated animals, 4.5 mg/kg i.p.): prevent drastic increase in blood glucose level
- effect on STZ-induced body weight loss (STZ-treated mice; STZ-treated mice, to day 10): reduced the effect of STZ on body weight
- Blood glucose (STZ-treated mice; compound alone 4.5 mg/kg i.p. days −2 to +7, no STZ, day 0): 4.5 ± 0.4 mM
- Blood glucose (STZ-treated mice; compound alone 4.5 mg/kg i.p. days −2 to +7, no STZ, day +1): 4.7 ± 0.6 mM
- Blood glucose (STZ-treated mice; compound alone 4.5 mg/kg i.p. days −2 to +7, no STZ, day +2): 4.6 ± 0.4 mM
- Blood glucose (STZ-treated mice; compound alone 4.5 mg/kg i.p. days −2 to +7, no STZ, day +3): 4.7 ± 0.4 mM
- Blood glucose (STZ-treated mice; compound alone 4.5 mg/kg i.p. days −2 to +7, no STZ, day +7): 4.6 ± 0.4 mM
- Blood glucose (STZ-treated mice; compound alone 4.5 mg/kg i.p. days −2 to +7, no STZ, day +10): 4.3 ± 0.6 mM
- Blood glucose (STZ-treated mice; compound alone 4.5 mg/kg i.p. days −2 to +7, no STZ, day −1): 4.5 ± 0.4 mM
- Body weight (STZ-treated mice; compound alone 4.5 mg/kg i.p., no STZ, day 0, unit not printed in table (animals 28-31 g)): 28.2 ± 0.9
- Body weight (STZ-treated mice; compound alone 4.5 mg/kg i.p., no STZ, day +1, unit not given): 28.7 ± 0.4
- Body weight (STZ-treated mice; compound alone 4.5 mg/kg i.p., no STZ, day +2, unit not given): 28.1 ± 0.4
- Body weight (STZ-treated mice; compound alone 4.5 mg/kg i.p., no STZ, day +3, unit not given): 28.7 ± 0.7
- Body weight (STZ-treated mice; compound alone 4.5 mg/kg i.p., no STZ, day +7, unit not given): 29.5 ± 0.8
- Body weight (STZ-treated mice; compound alone 4.5 mg/kg i.p., no STZ, day +10, unit not given): 30.3 ± 1.4
